Reference: PubChem BioAssay (NCI)
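Values below derive from 48-hour exposures of cells grown in 96-well plates, with endpoints linearly interpolated between the two concentrations bracketing the appropriate inhibition level. GI50: concentration for 50% inhibition of growth. TGI: concentration producing complete growth inhibition.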

Tested on: SF-295 CNS
Assay: growth of human tumour cells (NCI), 48 h

With `Cc1cccc(NC(=O)c2sc3nc4c(cc3c2N)CN(Cc2ccccc2)CC4)c1C` as the molecule, how does the GI50 read?
The GI50 was 0.161 µM.

What about the TGI of the same molecule?
The TGI was 41.6 µM.

For `CC1=CC(=O)C(O)C2(C)C1CC(O)C13COC4(C)C(OC(=O)C41)C(O)C23` (stereo not given), which GI50 is on record?
The GI50 was 8.02 µM.

What about the TGI of the same molecule?
Its TGI is 39.1 µM.

Tested on: NCI-H226 lung
Assay: growth of human tumour cells (NCI), 48 h

`O=C(Oc1cccnc1)c1ccsc1Nc1ccnc(C(F)(F)F)c1` was tested. Which GI50 did it give?
The GI50 was 22.3 µM.

And the TGI?
The TGI was greater than 100 µM.

Which GI50 does the source give for `BrCc1ccc(CBr)cc1` here?
The GI50 was 5.37 µM.

What about the TGI of the same molecule?
Its TGI is 15.6 µM.

For `Cc1cccc(NC(=O)c2sc3nc4c(cc3c2N)CN(Cc2ccccc2)CC4)c1C`, which GI50 is on record?
Its GI50 is 1.64 µM.

And the TGI?
Its TGI is greater than 50 µM.

Which results are given for `CC1=CC(=O)C(O)C2(C)C1CC(O)C13COC4(C)C(OC(=O)C41)C(O)C23` (stereo not given)?
GI50: 3.48 µM; TGI: 21.2 µM

Tested on: T-47D breast
Assay: growth of human tumour cells (NCI), 48 h

What does the source list for `O=C(Oc1cccnc1)c1ccsc1Nc1ccnc(C(F)(F)F)c1`?
GI50: 13.8 µM; TGI: 68 µM

How did the GI50 turn out when `BrCc1ccc(CBr)cc1` was run?
The GI50 was 12.7 µM.

And the TGI?
The TGI was 48.8 µM.

Which GI50 does the source give for `Cc1cccc(NC(=O)c2sc3nc4c(cc3c2N)CN(Cc2ccccc2)CC4)c1C` here?
The GI50 was 0.226 µM.

What about the TGI of the same molecule?
The TGI was greater than 50 µM.

Which results are given for `CC1=CC(=O)C(O)C2(C)C1CC(O)C13COC4(C)C(OC(=O)C41)C(O)C23` (stereo not given)?
GI50: 17.6 µM; TGI: 66.5 µM

Tested on: IGROV1 ovarian
Assay: growth of human tumour cells (NCI), 48 h

Which GI50 does the source give for `O=C(Oc1cccnc1)c1ccsc1Nc1ccnc(C(F)(F)F)c1` here?
Its GI50 is 5.24 µM.

And the TGI?
Its TGI is greater than 100 µM.

What does the source list for `BrCc1ccc(CBr)cc1`?
GI50: 7 µM; TGI: > 87.4 µM

Which results are given for `Cc1cccc(NC(=O)c2sc3nc4c(cc3c2N)CN(Cc2ccccc2)CC4)c1C`?
GI50: 0.337 µM; TGI: > 50 µM

`CC1=CC(=O)C(O)C2(C)C1CC(O)C13COC4(C)C(OC(=O)C41)C(O)C23` (stereo not given) was tested. Which GI50 did it give?
The GI50 was 12.3 µM.

And the TGI?
Its TGI is 45.8 µM.

Tested on: SK-MEL-5 melanoma
Assay: growth of human tumour cells (NCI), 48 h

Which results are given for `O=C(Oc1cccnc1)c1ccsc1Nc1ccnc(C(F)(F)F)c1`?
GI50: 5.26 µM; TGI: 30.1 µM

How did the GI50 turn out when `BrCc1ccc(CBr)cc1` was run?
Its GI50 is 14.3 µM.

What about the TGI of the same molecule?
The TGI was 40.2 µM.

How did the GI50 turn out when `Cc1cccc(NC(=O)c2sc3nc4c(cc3c2N)CN(Cc2ccccc2)CC4)c1C` was run?
Its GI50 is 0.213 µM.

And the TGI?
Its TGI is greater than 50 µM.

What does the source list for `CC1=CC(=O)C(O)C2(C)C1CC(O)C13COC4(C)C(OC(=O)C41)C(O)C23` (stereo not given)?
GI50: 5.06 µM; TGI: 21.2 µM

Tested on: CCRF-CEM leukemia
Assay: growth of human tumour cells (NCI), 48 h

Which GI50 does the source give for `O=C(Oc1cccnc1)c1ccsc1Nc1ccnc(C(F)(F)F)c1` here?
The GI50 was 4.19 µM.

What about the TGI of the same molecule?
The TGI was greater than 100 µM.

How did the GI50 turn out when `BrCc1ccc(CBr)cc1` was run?
The GI50 was 2.07 µM.

With `Cc1cccc(NC(=O)c2sc3nc4c(cc3c2N)CN(Cc2ccccc2)CC4)c1C` as the molecule, how does the GI50 read?
Its GI50 is 0.195 µM.

And the TGI?
Its TGI is greater than 50 µM.

`CC1=CC(=O)C(O)C2(C)C1CC(O)C13COC4(C)C(OC(=O)C41)C(O)C23` (stereo not given) was tested. Which GI50 did it give?
Its GI50 is 5.79 µM.

And the TGI?
The TGI was greater than 100 µM.

Tested on: K-562 leukemia
Assay: growth of human tumour cells (NCI), 48 h

With `O=C(Oc1cccnc1)c1ccsc1Nc1ccnc(C(F)(F)F)c1` as the molecule, how does the GI50 read?
The GI50 was 3.74 µM.

And the TGI?
Its TGI is greater than 100 µM.

For `BrCc1ccc(CBr)cc1`, which GI50 is on record?
Its GI50 is 7.1 µM.

And the TGI?
Its TGI is greater than 20.6 µM.

Which results are given for `Cc1cccc(NC(=O)c2sc3nc4c(cc3c2N)CN(Cc2ccccc2)CC4)c1C`?
GI50: 0.104 µM; TGI: > 50 µM

`CC1=CC(=O)C(O)C2(C)C1CC(O)C13COC4(C)C(OC(=O)C41)C(O)C23` (stereo not given) was tested. Which GI50 did it give?
The GI50 was 5.48 µM.

And the TGI?
Its TGI is greater than 100 µM.

Tested on: COLO 205 colon
Assay: growth of human tumour cells (NCI), 48 h

For `O=C(Oc1cccnc1)c1ccsc1Nc1ccnc(C(F)(F)F)c1`, which GI50 is on record?
The GI50 was 4.89 µM.

What about the TGI of the same molecule?
Its TGI is 24.6 µM.

Which GI50 does the source give for `BrCc1ccc(CBr)cc1` here?
The GI50 was 0.146 µM.

And the TGI?
Its TGI is greater than 100 µM.
